Results: patent US11753603B2, “Acidic cleaning and disinfecting compositions comprising a citric/methansulfonic acid mixture” (THE CLOROX COMPANY, priority 2020, dated 2023)

Tested on: bacterial population
Assay: Suspension test (kill in 10 minutes)
Details: 0.1% citric acid alone
Description: Formula A of Table I includes addition of LAE (0.1%) plus APG (1.0%) and enables the use of citric acid levels as low at 0.1% with complete kill in suspension test in 10 minutes.

O=C(O)CC(O)(CC(=O)O)C(=O)O [citric acid]
kill in suspension test: little or no kill
